Read-outs that look alike come from different tables or passages of the source.
Experiments:
full-length TDP1 [1] = biological target: T1, full-length TDP1 (Homo sapiens, UniProt Q9NUW8); design: method as in Zhao et al., 2021; conditions: gel-based fluorescence assay, compounds reported in previous paper, ref Zhao et al., 2021; cited from earlier work
T1 construct: was incubated with recombinant full-length TDP1 or TDP1 (148–608) (40 p.m.)

full-length TDP1 [2] = biological target: T1, full-length TDP1; test: Gel-based fluorescence assay of TDP1-catalyzed hydrolysis, full-length TDP1; assay type: biochemical; conditions: for IC50: full-length recombinant TDP1, 5′-Cy5 N14Y DNA substrate, 15 min, room temperature, repeated three times
Procedure: (§1) The synthetic products were examined for their ability to inhibit TDP1 catalysis in in vitro gel-based fluorescence assays as previously described ([Lountos et al., 2019]; [Zhao et al., 2021]). A 5′-Cy5-labelled DNA substrate (N14Y, 5′-Cy5-[…]-pY-3′) was incubated in TDP1 reaction buffer with recombinant TDP1 ([…].) or truncated TDP1 (148–608) in the absence or presence of inhibitors for 15 min at room temperature. Inhibitors were evaluated at concentrations ranging from 12 μM to 27 mM (Figure 4). The TDP1 inhibition values were calculated based on gel images of cleavage product (N14P, 5′-Cy5-[…]-p-3′) shown in Figure 4 and listed in Table 1.
(§2) The inhibition of TDP1 was also conducted according to gel-based as previously described ([Lountos et al., 2019]; [Zhao et al., 2021]). Briefly, the DNA substrate (1 nM, 5′Cy5-[…]-pY-3′) was incubated with recombinant full-length TDP1 or TDP1 (148–608) (40 p.m.) in the absence or presence of inhibitors for 15 min at room temperature in TDP1 reaction buffer (50 mM Tris HCl, pH 7.5, 80 mM KCl, 2 mM EDTA, 1 mM DTT, 40 μg/ml BSA and 0.01% Tween-20). Reactions were stopped by adding an equal volume of gel loading buffer (99.5% (v/v) formamide, 5 mM EDTA). Samples were then subjected to a 20% denaturing PAGE gel following by gel scanning using a Typhoon FLA 9500 scanner (GE Healthcare). The IC50 values of TDP1 inhibitors were calculated by comparing the percentage of cleavage product (5′Cy5-[…]-p-3′) to DMSO control.

TDP1 (148–608) = biological target: T2, TDP1 (148–608) (Homo sapiens, UniProt Q9NUW8); test: Gel-based fluorescence assay of TDP1-catalyzed hydrolysis, truncated TDP1 (148–608); assay type: biochemical; conditions: for IC50: truncated TDP1 (148–608) catalytic domain, 5′-Cy5 N14Y DNA substrate, 15 min, room temperature, repeated three times
T2 construct: was incubated with recombinant full-length TDP1 or TDP1 (148–608) (40 p.m.)
Procedure: as §1, §2

[3] = Drug solubility observed at high concentrations in the gel assay; assay type: physicochemical; conditions: high concentrations in TDP1 gel assay (crescent vague bands); series up to 9 mM (3c) or 27 mM
Procedure: FIGURE 4 Representative gels for inhibition of full-length TDP1-catalyzed hydrolysis by phenylphosphonic acids 3a—3e and benzylphosphonic acids 4a—4c. In each gel: lane 1, N14Y only; lane 2, N14Y and TDP1; lanes 3–10, 3-fold serial dilution of drugs from 12 μM to 27 mM except for 3c from 12 μM to 9 mM.

T1 sequence (Q9NUW8 whole entry): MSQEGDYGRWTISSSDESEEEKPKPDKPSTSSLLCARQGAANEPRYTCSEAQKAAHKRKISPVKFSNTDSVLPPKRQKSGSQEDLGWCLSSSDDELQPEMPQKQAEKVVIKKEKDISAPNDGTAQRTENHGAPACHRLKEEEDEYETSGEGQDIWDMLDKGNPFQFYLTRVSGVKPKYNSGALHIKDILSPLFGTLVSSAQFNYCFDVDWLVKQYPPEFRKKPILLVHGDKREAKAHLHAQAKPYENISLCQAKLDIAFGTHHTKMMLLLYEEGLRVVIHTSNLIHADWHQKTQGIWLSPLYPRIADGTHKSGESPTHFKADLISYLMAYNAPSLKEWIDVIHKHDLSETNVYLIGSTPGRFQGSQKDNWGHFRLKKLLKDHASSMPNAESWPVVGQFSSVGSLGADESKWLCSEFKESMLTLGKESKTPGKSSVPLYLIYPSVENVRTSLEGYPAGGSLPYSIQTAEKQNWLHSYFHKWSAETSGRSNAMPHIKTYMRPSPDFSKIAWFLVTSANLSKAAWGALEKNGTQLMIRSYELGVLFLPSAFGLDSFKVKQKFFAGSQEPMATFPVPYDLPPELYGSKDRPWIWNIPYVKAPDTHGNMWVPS
T2 sequence (Q9NUW8 148-608): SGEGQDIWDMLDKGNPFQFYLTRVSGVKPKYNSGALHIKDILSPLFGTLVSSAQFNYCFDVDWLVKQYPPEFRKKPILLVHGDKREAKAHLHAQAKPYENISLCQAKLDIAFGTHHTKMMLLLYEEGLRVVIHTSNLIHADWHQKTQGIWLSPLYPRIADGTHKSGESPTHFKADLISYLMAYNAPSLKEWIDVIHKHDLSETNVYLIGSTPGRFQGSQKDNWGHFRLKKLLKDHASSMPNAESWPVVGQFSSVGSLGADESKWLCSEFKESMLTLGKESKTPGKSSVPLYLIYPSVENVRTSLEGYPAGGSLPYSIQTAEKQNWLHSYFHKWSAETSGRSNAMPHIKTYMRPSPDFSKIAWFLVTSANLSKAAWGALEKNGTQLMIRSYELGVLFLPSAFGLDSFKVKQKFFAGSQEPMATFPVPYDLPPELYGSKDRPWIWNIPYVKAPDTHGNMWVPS

Row | SMILES | IC50 (full-length TDP1 [2]) [mM] | IC50 (TDP1 (148–608)) [mM] | More potent using catalytic domain TDP1 (148–608) relative to full-length TDP1 (TDP1 (148–608); TDP1 (148–608) vs full-length TDP1) [fold] | Drug solubility [3] | Increase of inhibitory potency on adding a 7-phenyl group (full-length TDP1 [2]; full-length TDP1, 3c and 3e relative to 3b and 3d, 4c relative to 4b) | IC50 (full-length TDP1 [1]) [mM]
1 | O=C(O)c1ccc(Nc2c(-c3ccccc3)nc3cnccn23)cc1C(=O)O [Compound 2a] |  |  |  |  |  | > 0.1
2 | O=P(O)(O)c1ccc(Nc2c(-c3ccccc3)nc3cnccn23)cc1 [Compound 3a, (4-((2-Phenylimidazo [1,2-a]pyrazin-3-yl)amino)phenyl)phosphonic acid] | 2.45 ± 0.036 | 4.72 ± 0.43 |  |  |  | 
3 | O=P(O)(O)c1ccc(Nc2c(-c3ccccc3)nc3ccccn23)cc1 [Compound 3b, (4-((2-Phenylimidazo [1,2-a]pyridin-3-yl)amino)phenyl)phosphonic acid] | 1.66 ± 0.16 | 3.81 ± 0.751 |  |  |  | 
4 | O=P(O)(O)c1ccc(Nc2c(-c3ccccc3)nc3cc(-c4ccccc4)ccn23)cc1 [Compound 3c, (4-((2,7-Diphenylimidazo [1,2-a]pyridin-3-yl)amino)phenyl)phosphonic acid] | 0.545 ± 0.008 | 0.225 ± 0.0023 | 2 | poor drug solubility |  | 
5 | O=P(O)(O)c1ccc(Nc2c(-c3ccccc3O)nc3ccccn23)cc1 [Compound 3d, (4-((2-(2-Hydroxyphenyl)imidazo [1,2-a]pyridin-3-yl)amino)phenyl)phosphonic acid] | 1.58 ± 0.166 | 4.48 ± 0.05 |  |  |  | 
6 | O=P(O)(O)c1ccc(Nc2c(-c3ccccc3O)nc3cc(-c4ccccc4)ccn23)cc1 [Compound 3e, (4-((2-(2-Hydroxyphenyl)-7-phenylimidazo [1,2-a]pyridin-3-yl)amino)phenyl)phosphonic acid] | 0.293 ± 0.0075 | 0.605 ± 0.032 |  | poor drug solubility |  | 

Second part, led by results:

Row | IC50 (full-length TDP1 [2]) [mM] | IC50 (TDP1 (148–608)) [mM] | More potent using catalytic domain TDP1 (148–608) relative to full-length TDP1 (TDP1 (148–608); TDP1 (148–608) vs full-length TDP1) [fold] | Drug solubility [3] | Increase of inhibitory potency on adding a 7-phenyl group (full-length TDP1 [2]; full-length TDP1, 3c and 3e relative to 3b and 3d, 4c relative to 4b) | SMILES | IC50 (full-length TDP1 [1]) [mM]
7 | 1.28 ± 0.112 | 4.36 ± 0.472 |  |  |  | O=P(O)(O)Cc1ccc(Nc2c(-c3ccccc3)nc3cnccn23)cc1 [Compound 4a, (4-((2-Phenylimidazo [1,2-a]pyrazin-3-yl)amino)benzyl)phosphonic acid] | 
8 | 1.65 ± 0.85 | 4.81 ± 0.228 |  |  |  | O=P(O)(O)Cc1ccc(Nc2c(-c3ccccc3)nc3ccccn23)cc1 [Compound 4b, (4-((2-Phenylimidazo [1,2-a]pyridin-3-yl)amino)benzyl)phosphonic acid] | 
9 | 0.583 ± 0.0115 | 1.19 ± 0.35 |  |  | approximately 3 fold | O=P(O)(O)Cc1ccc(Nc2c(-c3ccccc3)nc3cc(-c4ccccc4)ccn23)cc1 [Compound 4c, (4-((2,7-Diphenylimidazo [1,2-a]pyridin-3-yl)amino)benzyl)phosphonic acid] | 

— publication PMC9424690, “Phosphonic acid-containing inhibitors of tyrosyl-DNA phosphodiesterase 1” (Frontiers in Chemistry, 2022)
